In patent US5220018A, “Cholecystokinin antagonists” (Merck & Co., Inc., priority 1992, dated 1993):
Where two headings read alike, the source gives them in different places.

Assays:
CCK Receptor (Pancreas) = target: T1, CCK Receptor (Pancreas) (Rattus norvegicus, UniProt P30551); experiment: biochemical; type: binding, Male Sprague-Dawley rats
T1 construct: The whole pancreas was dissected free of fat tissue and was homogenized; from tissue; host or cells: rat whole pancreas, homogenate membranes
T1 sequence (P30551 1-444): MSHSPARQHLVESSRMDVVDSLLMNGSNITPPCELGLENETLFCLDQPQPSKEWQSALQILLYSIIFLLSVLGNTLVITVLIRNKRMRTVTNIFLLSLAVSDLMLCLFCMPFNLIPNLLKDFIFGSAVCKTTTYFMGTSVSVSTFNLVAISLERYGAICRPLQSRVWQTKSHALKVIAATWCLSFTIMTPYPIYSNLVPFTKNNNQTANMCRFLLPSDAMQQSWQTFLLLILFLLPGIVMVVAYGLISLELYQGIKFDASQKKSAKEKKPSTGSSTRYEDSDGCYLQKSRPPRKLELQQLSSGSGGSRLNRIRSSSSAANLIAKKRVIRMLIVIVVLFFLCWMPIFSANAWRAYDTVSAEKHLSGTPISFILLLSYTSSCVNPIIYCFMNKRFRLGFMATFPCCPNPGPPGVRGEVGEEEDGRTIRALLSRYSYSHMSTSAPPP
Experimental: 1. CCK Receptor Binding (Pancreas)
CCK-8 sulphated was radiolabelled with ^125 I-Bolton Hunter reagent (2000 Ci/mmole). Receptor binding was performed according to Chang and Lotti (Proc. Natl. Acad. Sci. 83, 4923-4926, 1986) with minor modifications.
Male Sprague-Dawley rats (150-200 g) were sacrificed by decapitation. The whole pancreas was dissected free of fat tissue and was homogenized in 25 volumes of ice-cold 10 mM Hepes buffer with 0.1% soya bean trypsin inhibitor (pH 7.4 at 25° C.) with a Kinematica Polytron. The homogenates were centrifuged at 47,800 g for 10 min. Pellets were resuspended in 10 volumes of binding assay buffer (20 mM Hepes, 1 mM EGTA, 5 mM MgCl2, 150 mM NaCl, bacitracin 0.25 mg/ml, soya bean trypsin inhibitor 0.1 mg/ml, and bovine serum albumin 2 mg/ml, pH 6.5 at 25° C.) using a teflon homogenizer, 15 strokes at 500 rpm. The homogenate was further diluted in binding assay buffer to give a final concentration of 0.5 mg original wet weight/1 ml buffer. […] All assays were run in duplicate. The reaction mixtures were incubated at 25° C. for 2 hours and the reaction terminated by rapid filtration (Brandell 24 well cell harvester) over Whatman GF/C filters, washing 3×4 mls with ice-cold 100 mM NaCl. The radioactivity on the filters was counted with a LKB gamma counter.
(§1) Drug displacement studies were performed with at least 10 concentrations of compounds of formula 1 and the IC50 values were determined by regression analysis.

CCK Receptor (Brain) = target: T2, CCK Receptor (Brain) (Cavia porcellus, UniProt H0VZC5); experiment: CCK Receptor Binding (Brain), inhibition of 125I-CCK-8 binding; set-up: species or system Male Hartley guinea pigs
T2 construct: the cortex was removed and homogenized in 25 mL ice-cold 0.32M sucrose; from tissue; host or cells: guinea pig cerebral cortex, P2 membrane pellet
T2 sequence (H0VZC5 1-426): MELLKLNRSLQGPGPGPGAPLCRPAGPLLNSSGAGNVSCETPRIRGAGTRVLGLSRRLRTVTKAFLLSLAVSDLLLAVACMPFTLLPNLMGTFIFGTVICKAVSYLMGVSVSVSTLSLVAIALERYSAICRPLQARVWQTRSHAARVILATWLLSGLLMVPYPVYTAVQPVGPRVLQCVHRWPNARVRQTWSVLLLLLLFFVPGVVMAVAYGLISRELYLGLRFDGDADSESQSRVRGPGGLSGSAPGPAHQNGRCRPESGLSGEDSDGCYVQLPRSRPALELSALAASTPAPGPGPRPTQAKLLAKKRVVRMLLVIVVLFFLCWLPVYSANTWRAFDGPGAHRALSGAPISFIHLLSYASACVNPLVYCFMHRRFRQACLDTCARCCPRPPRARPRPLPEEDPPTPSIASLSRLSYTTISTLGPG
Experimental: 2. CCK Receptor Binding (Brain)
CCK-8 sulphated was radiolabelled and the binding was performed according to the description for the pancreas method with minor modifications.
Male Hartley guinea pigs (300-500 g) were sacrificed by decapitation and the cortex was removed and homogenized in 25 mL ice-cold 0.32M sucrose. The homogenates were centrifuged at 1000 g for 10 minutes and the resulting supernatant was recentrifuged at 20,000 g for 20 minutes. […] All assays were run in duplicate. The reaction mixtures were incubated at 25° C. for 2 hours and then the reaction was terminated on Whatman GF/C filters by rapid filtration (Brandell 24 well cell Harvester) with 3×5 ml washes of cold 100 mM NaCl. The radioactivity on the filters was then counted with a LKB gamma counter.
as §1

[1] = rat pancreas membranes, 125I-CCK-8 50 pM, 25° C., 2 hours, read-out: IC50, 125I-CCK Pancreas
[2] = guinea pig cortex membranes, 125I-CCK-8 50 pM, 25° C., 2 hours, read-out: IC50, 125I-CCK Brain

`CC(C)CN1C(=O)C(NC(=O)Nc2cccc(-c3nnn[nH]3)c2)N=C(c2ccccc2F)c2ccccc21` (racemic) [Example 21, N-[3(R,S)-2,3-Dihydro-5-(2-fluorophenyl)-1-(2-methylpropyl)-2-oxo-1H-1,4-benzodiazepin-3-yl]-N'-{[3-(tetrazol-5-yl)phenyl]urea}] showed an IC50 (CCK Receptor (Pancreas); [1]) of 150 nM and an IC50 (CCK Receptor (Brain); [2]) of 1.4 nM.

`CCN1C(=O)C(NC(=O)Nc2cccc(-c3nnn[nH]3)c2)N=C(c2ccccc2)c2ccccc21` (centres unmarked) [Example 3, N-{1,3-Dihydro-1-ethyl-2-oxo-5-phenyl-1H-1,4-benzodiazepin-3-yl}-N'-{[3-(1H-tetrazol-5-yl)phenyl]urea}] was tested, and the IC50 (CCK Receptor (Pancreas)) was 29 nM and the IC50 (CCK Receptor (Brain); [2]) was 1.6 nM.

`CC(C)N1C(=O)C(NC(=O)Nc2cccc(-c3nnn[nH]3)c2)N=C(c2ccccc2)c2ccccc21` (centres unmarked) [Example 4, N-{1,3-Dihydro-1-[2-propyl]-2-oxo-5-phenyl-1H-1,4-benzodiazepin-3-yl}-N'-{[3-(1H-tetrazol-5-yl)phenyl]urea}] gave an IC50 (CCK Receptor (Pancreas); [1]) of 200 nM and an IC50 (CCK Receptor (Brain); [2]) of 4.1 nM.

`CN1C(=O)[C@H](NC(=O)Nc2ccc(Cl)nc2)N=C(c2ccccc2)c2ccccc21` [Example 5, N-{1,3-Dihydro-1-methyl-2-oxo-5-phenyl-1H-1,4-benzodiazepin-3-yl}-N'-{[5-(2-chloro)pyridyl]urea}] was tested, and the IC50 (CCK Receptor (Pancreas); [1]) was > 3000 nM and the IC50 (CCK Receptor (Brain)) was 46 nM.

Compound `COc1ccc(NC(=O)N[C@@H]2N=C(c3ccccc3)c3ccccc3N(C)C2=O)cn1` [Example 6, N-{1,3-Dihydro-1-methyl-2-oxo-5-phenyl-1H-1,4-benzodiazepin-3-yl}-N'-{[5-(2-methoxy)pyridyl]urea}] has an IC50 (CCK Receptor (Pancreas); [1]) of 2000 nM and an IC50 (CCK Receptor (Brain); [2]) of 48 nM.

For `CN1C(=O)[C@H](NC(=O)Nc2cccc(C#N)c2)N=C(c2ccccc2)c2ccccc21` [Example 7, N-{1,3-Dihydro-1-methyl-2-oxo-5-phenyl-1H-1,4-benzodiazepin-3-yl}-N'-{[3-(cyano)phenyl]urea}], the IC50 (CCK Receptor (Pancreas); [1]) was 3100 nM and the IC50 (CCK Receptor (Brain); [2]) was 27 nM.

Work on `CC(=O)c1cccc(NC(=O)N[C@@H]2N=C(c3ccccc3)c3ccccc3N(C)C2=O)c1` [Example 8, N-{1,3-Dihydro-1-methyl-2-oxo-5-phenyl-1H-1,4-benzodiazepin-3-yl}-N'-{[3-(acetyl)phenyl]urea}] yielded an IC50 (CCK Receptor (Pancreas); [1]) of 1200 nM and an IC50 (CCK Receptor (Brain); [2]) of 3.6 nM.

`CN1C(=O)[C@H](NC(=O)Nc2cccc(N)c2)N=C(c2ccccc2)c2ccccc21` [Example 9, N-{1,3-Dihydro-1-methyl-2-oxo-5-phenyl-1H-1,4-benzodiazepin-3-yl}-N'-{[3-(amino)phenyl]urea}] was tested, and the IC50 (CCK Receptor (Pancreas); [1]) was > 3000 nM and the IC50 (CCK Receptor (Brain); [2]) was 33 nM.

In the case of `CN1C(=O)[C@H](NC(=O)Nc2cccc(C(N)=O)c2)N=C(c2ccccc2)c2ccccc21` [Example 10, N-{1,3-Dihydro-1-methyl-2-oxo-5-phenyl-1H-1,4-benzodiazepin-3-yl}-N'-{[3-(aminocarbonyl)phenyl]urea}], the IC50 (CCK Receptor (Pancreas); [1]) is reported as 1360 nM and the IC50 (CCK Receptor (Brain); [2]) is reported as 28 nM.

`COP(=O)(Nc1cccc(NC(=O)N[C@@H]2N=C(c3ccccc3)c3ccccc3N(C)C2=O)c1)OC` [Example 11, N-{1,3-Dihydro-1-methyl-2-oxo-5-phenyl-1H-1,4-benzodiazepin-3-yl}-N'-{[3-(dimethylphosphoramido)phenyl]urea}] was tested, and the IC50 (CCK Receptor (Pancreas); [1]) was 300 nM and the IC50 (CCK Receptor (Brain); [2]) was 100 nM.

`CN1C(=O)[C@H](NC(=O)Nc2cccc(NS(N)(=O)=O)c2)N=C(c2ccccc2)c2ccccc21` [Example 12, N-{1,3-Dihydro-1-methyl-2-oxo-5-phenyl-1H-1,4-benzodiazepin-3-yl}-N'-{[3-(aminosulfonamido)phenyl]urea}] showed an IC50 (CCK Receptor (Pancreas); [1]) of 530 nM and an IC50 (CCK Receptor (Brain); [2]) of 32 nM.

In the case of `CN1C(=O)[C@H](NC(=O)Nc2ccc3[nH]nnc3c2)N=C(c2ccccc2)c2ccccc21` [Example 13], the IC50 (CCK Receptor (Pancreas)) is reported as 1500 nM and the IC50 (CCK Receptor (Brain); [2]) is reported as 19 nM.

Compound `CN1C(=O)[C@H](NC(=O)Nc2cccc(S(N)(=O)=O)c2)N=C(c2ccccc2)c2ccccc21` [Example 14, N-{1,3-Dihydro-1-methyl-2-oxo-5-phenyl-1H-1,4-benzodiazepin-3-yl}-N'-{[3-(aminosulfonyl)phenyl]urea}] has an IC50 (CCK Receptor (Pancreas); [1]) of 4400 nM and an IC50 (CCK Receptor (Brain); [2]) of 74 nM.

`CN1C(=O)[C@H](NC(=O)Nc2cccc(B(O)O)c2)N=C(c2ccccc2)c2ccccc21` [Example 15, N-{1,3-Dihydro-1-methyl-2-oxo-5-phenyl-1H-1,4-benzodiazepin-3-yl}-N'-{[3-phenylboronyl]urea}] gave an IC50 (CCK Receptor (Pancreas); [1]) of 420 nM and an IC50 (CCK Receptor (Brain); [2]) of 9.6 nM.

For `CC(=O)NS(=O)(=O)c1cccc(NC(=O)N[C@@H]2N=C(c3ccccc3)c3ccccc3N(C)C2=O)c1` [Example 16, N-{1,3-Dihydro-1-methyl-2-oxo-5-phenyl-1H-1,4-benzodiazepin-3-yl}-N'-{[3-(acetylaminosulfonyl)phenyl]urea}], the IC50 (CCK Receptor (Pancreas); [1]) was > 3000 nM and the IC50 (CCK Receptor (Brain); [2]) was 3.9 nM.

Compound `CN1C(=O)[C@H](NC(=O)Nc2cccc(Cc3nnn[nH]3)c2)N=C(c2ccccc2)c2ccccc21` [Example 17, N-{1,3-Dihydro-1-methyl-2-oxo-5-phenyl-1H-1,4-benzodiazepin-3-yl}-N'-{[3-((1H-tetrazol-5-yl)methyl)phenyl]urea}] has an IC50 (CCK Receptor (Pancreas); [1]) of 1800 nM and an IC50 (CCK Receptor (Brain); [2]) of 4.8 nM.

For `CCCN1C(=O)[C@H](NC(=O)Nc2cccc(-c3nnn[nH]3)c2)N=C(c2ccccc2)c2ccccc21` [Example 18, N-{1,3-Dihydro-1-n-propyl-2-oxo-5-phenyl-1H-1,4-benzodiazepin-3-yl}-N'-{[3-(1H-tetrazol-5-yl)phenyl]urea}], the IC50 (CCK Receptor (Pancreas); [1]) was 1100 nM and the IC50 (CCK Receptor (Brain); [2]) was 0.067 nM.

Work on `CC[C@H](C)CN1C(=O)[C@H](NC(=O)Nc2cccc(-c3nnn[nH]3)c2)N=C(c2ccccc2)c2ccccc21` [Example 19, N-{1,3-Dihydro-1-[2-(S)-methylbutyl]-2-oxo-5-phenyl-1H-1,4-benzodiazepin-3-yl}-N'-{[3-(1H-tetrazol-5-yl)phenyl]urea}] yielded an IC50 (CCK Receptor (Pancreas); [1]) of 500 nM and an IC50 (CCK Receptor (Brain); [2]) of 0.25 nM.

`O=C(Nc1cccc(-c2nnn[nH]2)c1)N[C@@H]1N=C(c2ccccc2)c2ccccc2N(CC2CC2)C1=O` [Example 20, N-{1,3-Dihydro-1-cyclopropylmethyl-2-oxo-5-phenyl-1H-1,4-benzodiazepin-3-yl}-N'-{[3-(1H-tetrazol-5-yl)phenyl]urea}] gave an IC50 (CCK Receptor (Pancreas); [1]) of 870000 nM and an IC50 (CCK Receptor (Brain); [2]) of 0.4 nM.

`CC(=O)NC(=O)c1cccc(NC(=O)N[C@@H]2N=C(c3ccccc3)c3ccccc3N(C)C2=O)c1` [Example 22, N-{1,3-Dihydro-1-methyl-2-oxo-5-phenyl-1H-1,4-benzodiazepin-3-yl}-N'-{[3-(N-acetylcarboxamido)phenyl]urea}] was tested, and the IC50 (CCK Receptor (Pancreas); [1]) was 3800 nM and the IC50 (CCK Receptor (Brain); [2]) was 55 nM.

In the case of `CN1C(=O)[C@H](NC(=O)Nc2cccc(C(=O)NS(C)(=O)=O)c2)N=C(c2ccccc2)c2ccccc21` [Example 23, N-{1,3-Dihydro-1-methyl-2-oxo-5-phenyl-1H-1,4-benzodiazepin-3-yl}-N'-{[3-(N-(methanesulfonyl)carboxamido)phenyl]urea}], the IC50 (CCK Receptor (Pancreas)) is reported as 1500 nM and the IC50 (CCK Receptor (Brain); [2]) is reported as 12 nM.

`CC(C)S(=O)(=O)NC(=O)c1cccc(NC(=O)N[C@@H]2N=C(c3ccccc3)c3ccccc3N(C)C2=O)c1` [Example 24, N-{1,3-Dihydro-1-methyl-2-oxo-5-phenyl-1H-1,4-benzodiazepin-3-yl}-N'-{[3-(N-(2-propylsulfonyl)carboxamido)phenyl]urea}] showed an IC50 (CCK Receptor (Pancreas); [1]) of 2400 nM and an IC50 (CCK Receptor (Brain); [2]) of 7.6 nM.
